Measurements as given in article PMC8333425, “Discovery of a dual Ras and ARF6 inhibitor from a GPCR endocytosis screen” (Nature Communications, 2021).
Values joined by “and” are separate entries in the source; they are usually repeats but may differ in a detail not shown here. Identical values can stand only once.

What was measured:
Assay type in all cases: cell-based, human
[1] = system: ERK1/2 activation by β2AR; assay: Western blot of β2AR-mediated ERK1/2 phosphorylation; conditions: for p-ERK1/2 over ERK1/2, normalized to basal (0 min), b2AR: Comp 21 50 μM, individual experiments
Procedure: (§1) HEK293SL cells (10^5 cells per well) were seeded in a poly-L-lysine-coated six-well plate and transiently transfected with 3 μg Flag-AT1R, HA-B2R or HA-β2AR and/or 500 ng Flag-MEK1-WT, Flag-MEK1-DD, Flag-BRAF-WT, Flag-BRAF-V600E, Flag-K-Ras-WT, Flag-K-Ras-G12V, HA-ARF6-WT, or HA-ARF6-T27N. Gαq/11 KO and βarr1/2 KO cells were seeded onto 100 mm dishes at a density of 10^6 cells per dish. Next day, cells were transfected with 3 μg AT1R alone or along with 500 ng of β-arrestin2 using PEI. After 18 h of transfection, cells were detached and re-seeded onto poly-L-lysine coated 12-well plates (~1.5–2 × 10^5cells/well) for subsequent experiments. Forty-eight hours post transfection, in a 37 °C water bath, cells were serum-starved for 30 min, pretreated with DMSO (0.1%) or compound 21/Rasarfin (50 µM or at indicated concentrations) for 30 min, then stimulated or not with the indicated ligand [AngII (1 µM), BK (1 µM), Iso (10 µM) or EGF (100 ng/ml)] at indicated times. Cells were put on ice, washed with PBS and solubilized in 2x laemmli buffer (250 mM Tris–HCl pH 6.8, 2% SDS (w/v), 10% glycerol (v/v), 0.01% bromophenol blue (w/v) and 5% β-mercaptoethanol (v/v)) by heating at 65 °C for 15 min. Lysates were resolved on 10 or 14% SDS-PAGE, transferred to nitrocellulose membranes and immunoblotted for p-ERK1/2, ERK1/2, p-Akt, Akt, HA, Myc, β-actin or FLAG. ImageLab 5.2 software was used to quantify the digital blots as fold of the phosphorylated protein over total protein, which were then normalized as indicated in the figure legends. Uncropped immunoblots are provided in the Source Data file.

[2] = system: ERK1/2 activation by EGFR; assay: Western blot of EGFR-mediated ERK1/2 phosphorylation; conditions: for p-ERK1/2 over ERK1/2, normalized to basal (0 min), EGFR: Comp 21 50 μM; for p-ERK1/2 over ERK1/2, normalized to basal (0 min), EGFR / ERK 1/2 activation, EGFR (p-ERK1/2 over ERK1/2, fold over basal): individual experiments
Procedure: as §1

[3] = system: MEK1; assay: Western blot of ERK1/2 phosphorylation induced by MEK1 (MEK1-WT / MEK1-DD)
Procedure: as §1

Compound: CC(C)C(=O)N1CCN(c2ccc(NC(=O)c3cc4ccccc4o3)cc2Cl)CC1 [Compound 21]
- MAPK response promoted by β2AR ([1]; 50 μM): blocked MAPK responses
- p-ERK1/2 over ERK1/2, normalized to basal (0 min), b2AR ([1]; time 0 min): 1
- p-ERK1/2 over ERK1/2, normalized to basal (0 min), b2AR ([1]; time 2 min): 1.344 and 1.8469 and 1.974 and 1.462
- p-ERK1/2 over ERK1/2, normalized to basal (0 min), b2AR ([1]; time 5 min): 1.8675 and 1.745 and 1.249 and 1.487
- MAPK response promoted by EGFR ([2]; 50 μM): blocked MAPK responses
- p-ERK1/2 over ERK1/2, normalized to basal (0 min), EGFR ([2]; time 0 min): 1
- p-ERK1/2 over ERK1/2, normalized to basal (0 min), EGFR ([2]; time 2 min): 0.3674 and 5.171 and 13.8891 and 0.7219
- p-ERK1/2 over ERK1/2, normalized to basal (0 min), EGFR ([2]; time 5 min): 0.3034 and 7.285 and 51.2032 and 0.6227
- IC50 ([2]; Homo sapiens, read-out: IC50 for inhibition of ERK1/2 activation by EGFR): 4 µM
- ERK 1/2 activation, EGFR (p-ERK1/2 over ERK1/2, fold over basal) ([2]; Log [Comp 21] (M) -4.3): 3.411 percent compared to DMSO and 1.173 percent compared to DMSO
- ERK 1/2 activation, EGFR (p-ERK1/2 over ERK1/2, fold over basal) ([2]; Log [Comp 21] (M) -5): 5.269 percent compared to DMSO and 7.4638 percent compared to DMSO and 1.3341 percent compared to DMSO
- ERK 1/2 activation, EGFR (p-ERK1/2 over ERK1/2, fold over basal) ([2]; Log [Comp 21] (M) -5.3): 22.8883 percent compared to DMSO and 78.7892 percent compared to DMSO and 45.9513 percent compared to DMSO
- ERK 1/2 activation, EGFR (p-ERK1/2 over ERK1/2, fold over basal) ([2]; Log [Comp 21] (M) -6): 104.782 percent compared to DMSO and 74.7611 percent compared to DMSO
- ERK 1/2 activation, EGFR (p-ERK1/2 over ERK1/2, fold over basal) ([2]; Log [Comp 21] (M) -6.3): 80.4826 percent compared to DMSO and 84.8524 percent compared to DMSO
- ERK 1/2 activation, EGFR (p-ERK1/2 over ERK1/2, fold over basal) ([2]; Log [Comp 21] (M) -7): 108.069 percent compared to DMSO and 86.5762 percent compared to DMSO
- ERK1/2 activation induced by overexpression of MEK1-DD ([3]; 50 μM): nor did it block ERK1/2 activation
- Predicted (LS) mean diff. DMSO vs. compound (Bonferroni's multiple comparisons test) ([3]; Flag-MEK1 DD): 0.4193
- ERK1/2 phosphorylation relative to mock (S_Fig.4c) ([3]; Flag-MEK1 DD, listed as Comp 21): 4.057 and 4.133 and 4.072 and 3.9273
- Predicted (LS) mean diff. DMSO vs. compound (Bonferroni's multiple comparisons test) ([3]; Flag-MEK1 WT): 0.04596
- ERK1/2 phosphorylation relative to mock (S_Fig.4c) ([3]; Flag-MEK1 WT, listed as Comp 21): 1.754 and 1.134 and 1.2368
- ERK1/2 phosphorylation relative to mock (S_Fig.4c) ([3]; mock): 1
- Predicted (LS) mean diff. DMSO vs. compound (Bonferroni's multiple comparisons test) ([3]; mock): 0
